# According to patent US20230203043A1, “NOVEL IMIDAZOPYRAZINE DERIVATIVES” (Hoffmann-La Roche Inc., priority 2020, published 2023):
# Where a name gives a salt, the structure may show the parent alone.
# Test system: Acinetobacter baumannii ATCC17961
# Assay: Antimicrobial susceptibility testing: 90% growth inhibitory concentration (IC90) determination in Iso-Sensitest broth, OD600 growth
# Type: cell-based
# Details: Acinetobacter baumannii, ATCC17961, 16 h, read-out: A. baumannii ATCC 17961 IC90 (uM), strain ATCC 17961, OD600 growth over 16 h
# Procedure, shortened: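 Growth inhibition is calculated during the logarithmic phase from OD600 readings taken every 20 minutes across 16 h at 35±2° C. Bacteria at ~5×10^(5) CFU/ml face twofold dilution series (e.g. 50 to 0.097 μM final).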
row,SMILES,IC90 [µM]
1,"CCc1cc(Nc2nccn3c(-c4cn(CCF)nc4C(F)F)cnc23)ccc1C(=O)N1CCN(C(=O)C2CCNCC2)CC1 [Example 770, (4-(4-((3-(3-(difluoromethyl)-1-(2-fluoroethyl)-1H-pyrazol-4-yl)imidazo[1,2-a]pyrazin-8-yl)amino)-2-ethylbenzoyl)piperazin-1-yl)(piperidin-4-yl)methanone formate]",0.929

# Same assay, conditions: Acinetobacter baumannii, ATCC17961, 16 h, strain ATCC 17961, OD600 growth over 16 h, read-out: A. baumannii ATCC 17961 IC90
row,SMILES,IC90 [µM]
1,"Cc1cc(Nc2nccn3c(-c4cn(CC#N)nc4C(F)(F)F)cnc23)cc(F)c1C(=O)N[C@H](C)CNC(=O)[C@@H]1C[C@@H](O)CN1 [Example 769, (2S,4R)-N-((R)-2-(4-(3-(1-(cyanomethyl)-3-(trifluoromethyl)-1H-pyrazol-4-yl)imidazo[1,2-a]pyrazin-8-yl)amino)-2-fluoro-6-methylbenzamido)propyl)-4-hydroxypyrrolidine-2-carboxamide formate]",0.928
2,"CCc1cc(Nc2nccn3c(-c4cn(COC)nc4C(F)F)cnc23)ccc1C(=O)N1CCN(C(=O)CN)CC1 [Example 771, 2-amino-1-(4-(4-((3-(3-(difluoromethyl)-1-(methoxymethyl)-1H-pyrazol-4-yl)imidazo[1,2-a]pyrazin-8-yl)amino)-2-ethylbenzoyl)piperazin-1-yl)ethan-1-one]",0.953
3,"CCc1cc(Nc2nccn3c(-c4c[nH]nc4C(F)(F)F)cnc23)ccc1C(=O)NCCOCCN1CCOCC1 [Example 772, 2-ethyl-N-(2-(2-morpholinoethoxy)ethyl)-4-((3-(3-(trifluoromethyl)-1H-pyrazol-4-yl)imidazo[1,2-a]pyrazin-8-yl)amino)benzamide]",0.968
4,"C=CCn1cc(-c2cnc3c(Nc4ccc(C(=O)N5CCN(C(=O)[C@@H]6C[C@@H](O)CN6)CC5)c(CC)c4)nccn23)c(C(F)F)n1 [Example 774, (4-(4-((3-(1-allyl-3-(difluoromethyl)-1H-pyrazol-4-yl)imidazo[1,2-a]pyrazin-8-yl)amino)-2-ethylbenzoyl)piperazin-1-yl)((2S,4R)-4-hydroxypyrrolidin-2-yl)methanone]",0.986
5,"CCc1cc(Nc2nccn3c(-c4c[nH]nc4C(F)(F)F)cnc23)ccc1C(=O)NCC1CC1N (stereo not shown) [Example 776, N-((2-aminocyclopropyl)methyl)-2-ethyl-4-((3-(3-(trifluoromethyl)-1H-pyrazol-4-yl)imidazo [1,2-a]pyrazin-8-yl)amino) benzamide formate]",1.01

# Second part, the compound after the results:
row,IC90 [µM],SMILES
1,0.904,"CCc1cc(Nc2nccn3c(-c4cn(COC)nc4C(F)F)cnc23)ccc1C(=O)N1CCN(C(=O)[C@H](C)N)CC1 [Example 767, (S)-2-amino-1-(4-(4-((3-(3-(difluoromethyl)-1-(methoxymethyl)-1H-pyrazol-4-yl)imidazo[1,2-a]pyrazin-8-yl)amino)-2-ethylbenzoyl)piperazin-1-yl)propan-1-one]"
2,0.916,"CCc1cc(Nc2nccn3c(-c4cn(CC(F)F)nc4C(F)F)cnc23)ccc1C(=O)N1CCN(C(=O)[C@H](N)C(C)C)CC1 [Example 768, (R)-2-amino-1-(4-(4-((3-(1-(2,2-difluoroethyl)-3-(difluoromethyl)-1H-pyrazol-4-yl)imidazo[1,2-a]pyrazin-8-yl)amino)-2-ethylbenzoyl)piperazin-1-yl)-3-methylbutan-1-one]"
3,0.978,"C#CCn1cc(-c2cnc3c(Nc4ccc(C(=O)N5CCN(C(=O)[C@H](N)C(C)C)CC5)c(CC)c4)nccn23)c(C(F)F)n1 [Example 773, (R)-2-amino-1-(4-(4-((3-(3-(difluoromethyl)-1-(prop-2-yn-1-yl)-1H-pyrazol-4-yl)imidazo[1,2-a]pyrazin-8-yl)amino)-2-ethylbenzoyl)piperazin-1-yl)-3-methylbutan-1-one]"
4,0.988,"CCc1cc(Nc2nccn3c(-c4cn(CC(F)F)nc4C(F)F)cnc23)ccc1C(=O)N1CCN(C(=O)[C@H](C)N)CC1 [Example 775, (S)-2-amino-1-(4-(4-((3-(1-(2,2-difluoroethyl)-3-(difluoromethyl)-1H-pyrazol-4-yl)imidazo[1,2-a]pyrazin-8-yl)amino)-2-ethylbenzoyl)piperazin-1-yl)propan-1-one]"
